IC50 data for 28 compounds are collected here from patent US10052306B2 (LUC THERAPEUTICS, INC., priority 2013, dated 2018).

Structures are written as SMILES. Like-named read-outs stand apart in the source and are kept apart here.

Test [1] concerns the target NR1/NR2B (Homo sapiens (Human), UniProt Q05586+Q13224). Briefly: Cell assay: FDSS Ca2+ influx inhibition in HEK293 cells expressing NR1/NR2B.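 Note: Fluo-8 Ca2+ signal read on Hamamatsu FDSS 6000 after glutamate, glycine and Ca2+ challenge following 10 min compound preincubation, end/baseline fluorescence ratio compared with MK801 control.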 The note with it: Binned Activity, HEK293 cells expressing NR1/NR2B, Ca2+ influx; binned NR2B NAM IC50.
Experimental: (§1) Cell Culture and plating: HEK293 cells expressing NR1/NR2B (Chantest, Cleveland, Ohio) were grown to 70-80% confluency as an adherent monolayer in standard tissue culture flasks at 37° C., 5% CO2 per supplier's instructions. NR2B expression was induced by incubation with 0.3-0.4 μg/ml tetracycline in the presence of 4 mM ARL-15896 for 18-24 hours under the same growth conditions, then transferred to 30° C. for another 3-5 hours.
(§2) After induction, cell culture medium was removed and cells were rinsed once with Ca^2+ and Mg^2+-free Dulbecco's phosphate buffered saline. Cells were then removed from the flask using TrypLE™ Express (Life Technologies) according to the manufacturer's instructions and collected to 50 ml centrifuge tubes. Following two washes in Ca^2+/Mg^2+-free HBSS with 20 mM HEPES (HHnoCa), cells were counted and viability assessed using trypan blue. To load cells with Ca^2+-sensitive dye, they were resuspended in fluo-8 plus Component B (AAT Bioquest Products) diluted in HHnoCa and incubated 15 minutes at 37° C., followed by 30 minutes at room temp (in dark). Cells were then washed and resuspended in HHnoCa to remove extracellular dye and plated in 384-well plates (Falcon, uncoated) at 20,000-30,000 cells/well in a final volume of 25 μl/well.
(§3) FDSS Assay: To each well of the plate, 10 μL test compound, control (MK801) or HHnoCa buffer was added to a final concentration of 10 μM with a final concentration of DMSO of 0.1%. Following 10 minutes pre-incubation in the dark, plates are loaded onto the Hamamatsu FDSS 6000. After collecting baseline fluorescence images, 3 μM glutamate, 3 glycine, and 1 mM Ca^2+ in HHnoCa buffer is added to each well, and Ca^2+ is recorded for 3 minutes. Data were processed by computing ratio of fluorescence at the end of data collection to baseline fluorescence to assess degree of Ca′ influx inhibition relative to that observed in MK801.
Test [2] addresses NR1/NR2B (Homo sapiens (Human), UniProt Q13224). The test is described as above. The note with it: read-out: NR2B NAM IC50.
Experimental: as §1, §2, §3
[3] abbreviates: HEK293 cells expressing NR1/NR2B, Ca2+ influx.

NR1/NR2B (Homo sapiens (Human), UniProt Q05586+Q13224), sequence (Q13224 27-1484, other chains not shown): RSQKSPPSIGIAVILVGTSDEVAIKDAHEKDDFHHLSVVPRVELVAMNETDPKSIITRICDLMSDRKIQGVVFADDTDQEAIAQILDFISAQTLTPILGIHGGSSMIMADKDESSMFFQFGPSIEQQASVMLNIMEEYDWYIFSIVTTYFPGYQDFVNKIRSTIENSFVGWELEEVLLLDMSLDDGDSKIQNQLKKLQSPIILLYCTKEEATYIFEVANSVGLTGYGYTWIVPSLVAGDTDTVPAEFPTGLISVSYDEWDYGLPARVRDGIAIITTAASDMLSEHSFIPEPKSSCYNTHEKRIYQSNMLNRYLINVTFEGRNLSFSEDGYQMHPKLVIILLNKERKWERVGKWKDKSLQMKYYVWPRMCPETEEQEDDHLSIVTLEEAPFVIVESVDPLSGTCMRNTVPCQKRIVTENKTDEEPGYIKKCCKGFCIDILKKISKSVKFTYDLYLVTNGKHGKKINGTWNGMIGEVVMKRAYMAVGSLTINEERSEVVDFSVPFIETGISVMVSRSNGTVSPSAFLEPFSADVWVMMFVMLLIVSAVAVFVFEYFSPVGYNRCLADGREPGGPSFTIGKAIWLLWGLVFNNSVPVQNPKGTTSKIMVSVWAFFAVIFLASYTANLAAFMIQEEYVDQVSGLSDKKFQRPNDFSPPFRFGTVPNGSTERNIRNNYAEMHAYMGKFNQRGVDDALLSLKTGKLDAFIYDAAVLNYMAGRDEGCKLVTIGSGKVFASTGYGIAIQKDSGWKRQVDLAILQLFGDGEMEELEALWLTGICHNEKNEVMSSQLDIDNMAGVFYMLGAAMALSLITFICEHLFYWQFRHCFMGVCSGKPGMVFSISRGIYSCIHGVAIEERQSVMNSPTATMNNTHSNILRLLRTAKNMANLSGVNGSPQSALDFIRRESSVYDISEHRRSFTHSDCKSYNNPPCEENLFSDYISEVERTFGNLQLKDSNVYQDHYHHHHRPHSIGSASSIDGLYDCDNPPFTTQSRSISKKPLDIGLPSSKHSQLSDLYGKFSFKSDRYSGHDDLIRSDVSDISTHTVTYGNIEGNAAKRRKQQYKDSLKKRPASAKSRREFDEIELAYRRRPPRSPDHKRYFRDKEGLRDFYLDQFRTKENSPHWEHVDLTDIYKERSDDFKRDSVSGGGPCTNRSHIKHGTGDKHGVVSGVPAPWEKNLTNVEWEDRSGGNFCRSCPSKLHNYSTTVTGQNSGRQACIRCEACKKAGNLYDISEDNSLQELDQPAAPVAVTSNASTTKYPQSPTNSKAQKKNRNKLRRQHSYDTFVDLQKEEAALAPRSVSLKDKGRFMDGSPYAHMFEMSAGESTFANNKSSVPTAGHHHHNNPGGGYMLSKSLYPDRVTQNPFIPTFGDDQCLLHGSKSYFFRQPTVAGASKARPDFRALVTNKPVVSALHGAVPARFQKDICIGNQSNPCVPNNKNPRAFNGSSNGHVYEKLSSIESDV
NR1/NR2B (Homo sapiens (Human), UniProt Q13224), sequence (Q13224 27-1484, other chains not shown): as above

In general, IC50 refers to the point on the concentration scale where inhibition reaches its midpoint. For `Oc1ccc([C@H](O)CN2C[C@@H]3C[C@@](O)(Cc4ccccc4)C[C@@H]3C2)nc1` [Example 165, (3aR,5R,6aS)-5-benzyl-2-((R)-2-hydroxy-2-(5-hydroxypyridin-2-yl)ethyl)octahydrocyclo-penta[c]pyrrol-5-ol], the IC50 against NR1/NR2B [1] was below 0.1 µM; at NR1/NR2B [2] (setting [3]), 0.0337 µM.

As to `O=C(CCN1C[C@@H]2C[C@@](O)(c3ccccc3)C[C@@H]2C1)c1ccc(O)cc1` [Example 97, 3-(5-hydroxy-5-phenylhexahydrocyclo-penta[c]pyrrol-2(1H)-yl)-1-(4-hydroxyphenyl)propan-1-one], the results for the IC50 against NR1/NR2B [1] and on NR1/NR2B [2] (setting [3]) were above 10 µM and 10 µM, respectively.

In the case of `Oc1ccc([C@H](O)CN2C[C@@H]3C[C@@](O)(Cc4ccc(F)cc4)C[C@@H]3C2)nc1` [Example 256, (3aR,5R,6aS)-5-(4-fluorobenzyl)-2-((R)-2-hydroxy-2-(5-hydroxypyridin-2-yl)ethyl)octahydrocyclo-penta[c]pyrrol-5-ol], the IC50 against NR1/NR2B [1] is below 0.1 µM; on NR1/NR2B [2] (setting [3]) it was 0.0317 µM.

Regarding `O=C(CN1C[C@@H]2C[C@@](O)(CC3CCCCC3)C[C@@H]2C1)c1ccc(O)cc1` [Example 205, 2-[(3aR,5R,6aS)-5-(cyclohexylmethyl)-5-hydroxy-octahydrocyclopenta[c]pyrrol-2-yl]-1-(4-hydroxyphenyl)ethan-1-one], the IC50 on NR1/NR2B [1] was 0.1 to 1 µM; on NR1/NR2B [2] (setting [3]) it was 0.346 µM.

`Oc1ccc([C@@H](O)CN2C[C@@H]3C[C@@](O)(Cc4ccccc4)C[C@@H]3C2)cc1` [Example 136, (3aR,5R,6aS)-5-benzyl-2-((R)-2-hydroxy-2-(4-hydroxyphenyl)ethyl)octa-hydrocyclopenta[c]pyrrol-5-ol]: the results for the IC50 on NR1/NR2B [1] and at NR1/NR2B [2] (setting [3]) were below 0.1 µM and 0.0237 µM, respectively.

In the case of `CC(C)(C)c1ccc([C@]2(O)C[C@H]3CN(C(=O)Nc4cccc(C(F)(F)F)c4)C[C@H]3C2)cc1` [Example 55, 5-(4-tert-butylphenyl)-5-hydroxy-N-[3-(trifluoromethyl)phenyl]-octahydrocyclopenta[c] pyrrole-2-carboxamide], the IC50 was above 10 µM at NR1/NR2B [1] and 10 µM at NR1/NR2B [2] (setting [3]).

With `O=C1Cc2cc(C(=O)CN3C[C@@H]4C[C@@](O)(Cc5ccccc5)C[C@@H]4C3)ccc2N1` [Example 147, 5-(2-((3aR,5r,6aS)-5-benzyl-5-hydroxyhexahydrocyclo-penta[c]pyrrol-2(1H)-yl)acetyl)indolin-2-one], the IC50 was 0.1 to 1 µM at NR1/NR2B [1] and 0.352 µM at NR1/NR2B [2] (setting [3]).

As for `COc1cccc([C@]2(O)C[C@H]3CN(CC(=O)c4ccccc4)C[C@H]3C2)c1` [Example 59, 2-[5-hydroxy-5-(3-methoxyphenyl)-octahydrocyclopenta[c]pyrrol-2-yl]-1-phenylethan-1-one], the IC50 on NR1/NR2B [1] was above 10 µM; at NR1/NR2B [2] it was 10 µM.

Consider `COc1ccc(-c2cccc(C(=O)CN3C[C@@H]4C[C@@](O)(Cc5ccccc5)C[C@@H]4C3)c2)cc1` [Example 263, 2-((3aR,5r,6aS)-5-benzyl-5-hydroxyhexahydrocyclo-penta[c]pyrrol-2(1H)-yl)-1-(4′-methoxy-[1,1′-biphenyl]-3-yl)ethanone], for which the IC50 at NR1/NR2B [1] is above 10 µM; on NR1/NR2B [2] (setting [3]), 10 µM.

Consider `CC(C)(C)C(=O)Nc1ccc(C(=O)CN2C[C@@H]3C[C@@](O)(Cc4ccccc4)C[C@@H]3C2)cn1` [Example 285, N-(5-(2-(5-benzyl-5-hydroxyhexahydrocyclo-penta[c]pyrrol-2(1H)-yl)acetyl)pyridin-2-yl)pivalamide], for which the IC50 against NR1/NR2B [1] is above 10 µM; at NR1/NR2B [2] (setting [3]), 10 µM.

For the compound `Cc1ccc(NC(=O)N2C[C@@H]3C[C@@](O)(Cc4ccccc4)C[C@@H]3C2)cc1` [Example 125, (3aR,5r,6aS)-5-benzyl-5-hydroxy-N-(p-tolyl) hexahydrocyclopenta [c]pyrrole-2(1H)-carboxamide], the IC50 on NR1/NR2B [1] is above 10 µM; at NR1/NR2B [2] (setting [3]), 10 µM.

For the compound `Oc1ccc([C@H](O)CN2C[C@@H]3C[C@@](O)(Cc4ccccc4)C[C@@H]3C2)cc1F` [Example 156, (3aR,5S,6aS)-5-benzyl-2-((S)-2-(3-fluoro-4-hydroxyphenyl)-2-hydroxyethyl)octahydro-cyclopenta[c]pyrrol-5-ol], the results for the concentration for half-maximal inhibition (IC50) on NR1/NR2B [1] and on NR1/NR2B [2] (setting [3]) were below 0.1 µM and 0.0305 µM, respectively.

In the case of `O=C(Nc1cccc(Cl)c1)N1C[C@@H]2C[C@@](O)(c3ccccc3)C[C@@H]2C1` [Example 4, N-(3-chlorophenyl)-5-hydroxy-5-phenyl-octahydrocyclopenta[c] pyrrole-2-carboxamide], the IC50 was above 10 µM against NR1/NR2B [1] and 10 µM at NR1/NR2B [2] (setting [3]).

Consider `O=C(CN1C[C@@H]2C[C@](O)(Cc3ccccc3)C[C@@H]2C1)c1ccc(O)cc1` [Example 290, 2-((3aR,5r,6aS)-5-benzyl-5-hydroxyhexahydrocyclo-penta[c]pyrrol-2(1H)-yl)-1-(4-hydroxyphenyl)ethanone], for which the IC50 was below 0.1 µM on NR1/NR2B [1] and 0.0766 µM at NR1/NR2B [2] (setting [3]).

On to `O=C(CN1C[C@H]2C[C@@H](Cc3ccccc3)C[C@H]2C1)c1ccc(O)c(F)c1` [Example 307, 2-[(3aR,5S,6aS)-5-benzyl-octahydrocyclopenta[c]pyrrol-2-yl]-1-(3-fluoro-4-hydroxyphenyl) ethan-1-one], for which the IC50 was below 0.1 µM against NR1/NR2B [1] and 0.0412 µM at NR1/NR2B [2] (setting [3]).

Take `O=C(CN1C[C@@H]2C[C@@](O)(c3cccnc3F)C[C@@H]2C1)c1ccc(O)cn1` [Example 244, 2-((3aR,6aS)-5-(2-fluoropyridin-3-yl)-5-hydroxyhexahydrocyclo-penta[c]pyrrol-2(1H)-yl)-1-(5-hydroxypyridin-2-yl)ethanone]: the values for the IC50 at NR1/NR2B [1] and on NR1/NR2B [2] (setting [3]) were above 10 µM and 10 µM, respectively.

In the case of `O=C(CN1C[C@@H]2C[C@@](O)(Cc3ccccc3)C[C@@H]2C1)c1ccc(Cl)nc1` [Example 155, 2-((3aR,5r,6aS)-5-benzyl-5-hydroxyhexahydrocyclo-penta[c]pyrrol-2(1H)-yl)-1-(6-chloropyridin-3-yl)ethanone], the IC50 was above 10 µM on NR1/NR2B [1] and 10 µM on NR1/NR2B [2] (setting [3]).

Turning to `O=C(CN1C[C@@H]2CN(Cc3ccccc3)C[C@@H]2C1)c1ccc(O)cc1` [Example 326, 2-(5-benzylhexahydropyrrolo [3,4-c]pyrrol-2(1H)-yl)-1-(4-hydroxy-phenyl)ethanone], the IC50 against NR1/NR2B [1] is 0.1 to 1 µM; at NR1/NR2B [2] (setting [3]), 0.682 µM.

`Oc1ccc([C@@H](O)CN2C[C@@H]3C[C@](F)(Cc4ccccc4)C[C@@H]3C2)cc1` [Example 314, 4-((R)-2-((3aR,5S,6aS)-5-benzyl-5-fluoro-hexahydrocyclopen-ta[c]pyrrol-2(1H)-yl)-1-hydroxyethyl)phenol]: the IC50 was 0.1 to 1 µM at NR1/NR2B [1] and 0.414 µM at NR1/NR2B [2] (setting [3]).

Regarding `O=C(CN1C[C@@H]2C[C@@](O)(Cc3ccc(F)cc3F)C[C@@H]2C1)c1ccc(O)cc1` [Example 238, 2-(5-(2,4-difluorobenzyl)-5-hydroxyhexahydrocyclo-penta[c]pyrrol-2(1H)-yl)-1-(4-hydroxyphenyl)ethanone], the IC50 on NR1/NR2B [1] was below 0.1 µM; at NR1/NR2B [2] (setting [3]), 0.0516 µM.

Take `CC(C)(C)OC(=O)Nc1ccc(C(=O)CN2C[C@@H]3C[C@@](O)(Cc4ccccc4)C[C@@H]3C2)cn1` [Example 284, tert-butyl (5-(2-(5-benzyl-5-hydroxyhexahydrocyclo-penta[c]pyrrol-2(1H)-yl)acetyl)pyridin-2-yl)carbamate]: the IC50 is above 10 µM against NR1/NR2B [1] and 10 µM on NR1/NR2B [2] (setting [3]).

With `O[C@@]1(c2ccc(F)cc2)C[C@H]2CN(c3cccc(C(F)(F)F)n3)C[C@H]2C1` [Example 81, 5-(4-fluorophenyl)-2-[6-(trifluoromethyl)pyridin-2-yl]-octahydrocyclopenta[c] pyrrol-5-ol], the IC50 against NR1/NR2B [1] is above 10 µM; at NR1/NR2B [2] (setting [3]), 10 µM.

As to `O=C(CN1C[C@@H]2C[C@@](O)(Cc3cccs3)C[C@@H]2C1)c1ccc(O)c(F)c1` [Example 220, 1-(3-fluoro-4-hydroxyphenyl)-2-(5-hydroxy-5-(thiophen-2-ylmethyl)hexahydro-cyclopenta[c]pyrrol-2(1H)-yl)ethanone], the IC50 at NR1/NR2B [1] is 0.1 to 1 µM; at NR1/NR2B [2] (setting [3]) it was 0.111 µM.

As to `COc1cccc([C@]2(O)C[C@H]3CN(C(=O)Nc4cc(C)ccc4OC)C[C@H]3C2)c1` [Example 33, 5-hydroxy-N-(2-methoxy-5-methylphenyl)-5-(3-methoxyphenyl)-octahydrocyclopenta[c] pyrrole-2-carboxamide], the results for the IC50 on NR1/NR2B [1] and at NR1/NR2B [2] (setting [3]) were above 10 µM and 10 µM, respectively.

For `O=C(Nc1ccccc1)N1C[C@@H]2C[C@@](O)(c3ccccc3)C[C@@H]2C1` [Example 25, 5-hydroxy-N,5-diphenyl-octahydrocyclopenta[c] pyrrole-2-carboxamide], the results for the IC50 on NR1/NR2B [1] and at NR1/NR2B [2] (setting [3]) were above 10 µM and 10 µM, respectively.

Take `COc1cccc([C@]2(O)C[C@H]3CN(C(=O)Nc4ccccc4)C[C@H]3C2)c1` [Example 29, 5-hydroxy-5-(3-methoxyphenyl)-N-phenyl-octahydrocyclopenta[c] pyrrole-2-carboxamide]: the IC50 was above 10 µM on NR1/NR2B [1] and 10 µM at NR1/NR2B [2] (setting [3]).

Take `O=C(CN1C[C@H]2C[C@H](Cc3ccccc3)C[C@H]2C1)c1ccc(O)cc1` [Example 305, 2-[(3aR,5R,6aS)-5-benzyl-octahydrocyclopenta[c]pyrrol-2-yl]-1-(4-hydroxyphenyl)ethan-1-one]: the IC50 on NR1/NR2B [1] was below 0.1 µM; at NR1/NR2B [2] (setting [3]), 0.0535 µM.

For `O=C(CN1C[C@@H]2C[C@@](O)(Cc3ccccc3)C[C@@H]2C1)c1ccc(-c2ccc(F)cc2)cc1` [Example 262, 2-((3aR,5r,6aS)-5-benzyl-5-hydroxyhexahydrocyclo-penta[c]pyrrol-2(1H)-yl)-1-(4′-fluoro-[1,1′-biphenyl]-4-yl)ethanone], the half-maximal inhibitory concentration (IC50) is above 10 µM against NR1/NR2B [1] and 10 µM on NR1/NR2B [2] (setting [3]).
